{"source": "patent US20250281498A1", "about": "“FUSED AMINO PYRIMIDINE COMPOUNDS FOR TREATMENT OF SYNUCLEINOPATHIES AND TDP-43 PROTEINOPATHIES” (Ovid Therapeutics Inc., priority 2024, published 2025)", "key": {"KCC2 [1]": {"biological_target": "T1, KCC2 (Homo sapiens, UniProt Q9H2X9)", "T1 construct": "expressed in transfected cells; host or cells: HEK-293 (ATCC CRL-1573)", "T1 sequence (Q9H2X9 1-1116 isoform Q9H2X9-2)": "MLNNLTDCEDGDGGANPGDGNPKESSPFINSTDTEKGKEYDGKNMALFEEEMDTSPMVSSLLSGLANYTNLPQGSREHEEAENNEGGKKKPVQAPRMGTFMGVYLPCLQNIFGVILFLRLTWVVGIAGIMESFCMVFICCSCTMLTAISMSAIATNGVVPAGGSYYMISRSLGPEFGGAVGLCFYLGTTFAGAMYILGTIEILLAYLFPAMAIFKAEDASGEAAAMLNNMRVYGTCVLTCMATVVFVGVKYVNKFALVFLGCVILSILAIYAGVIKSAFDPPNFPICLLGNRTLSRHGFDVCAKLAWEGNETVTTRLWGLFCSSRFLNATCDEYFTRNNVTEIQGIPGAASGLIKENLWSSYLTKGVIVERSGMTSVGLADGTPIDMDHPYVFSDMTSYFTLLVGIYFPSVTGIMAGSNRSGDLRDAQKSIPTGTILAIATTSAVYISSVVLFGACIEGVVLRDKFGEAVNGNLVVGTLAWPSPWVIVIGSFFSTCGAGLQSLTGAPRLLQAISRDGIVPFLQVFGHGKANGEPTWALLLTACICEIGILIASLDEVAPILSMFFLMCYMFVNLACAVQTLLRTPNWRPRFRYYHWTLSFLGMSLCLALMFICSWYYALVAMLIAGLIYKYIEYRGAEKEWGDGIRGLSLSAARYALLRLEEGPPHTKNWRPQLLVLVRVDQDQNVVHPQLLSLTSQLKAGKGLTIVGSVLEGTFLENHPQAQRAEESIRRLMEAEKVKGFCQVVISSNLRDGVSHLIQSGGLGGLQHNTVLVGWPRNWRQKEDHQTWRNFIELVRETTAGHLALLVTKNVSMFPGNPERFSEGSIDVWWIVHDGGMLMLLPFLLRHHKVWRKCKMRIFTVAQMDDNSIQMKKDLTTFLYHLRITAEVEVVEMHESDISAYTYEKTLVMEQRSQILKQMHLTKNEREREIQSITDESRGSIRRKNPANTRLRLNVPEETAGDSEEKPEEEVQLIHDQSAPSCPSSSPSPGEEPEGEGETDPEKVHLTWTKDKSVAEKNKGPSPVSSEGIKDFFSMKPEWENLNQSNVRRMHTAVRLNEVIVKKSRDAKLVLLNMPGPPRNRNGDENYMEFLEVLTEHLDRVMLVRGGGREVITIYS", "assay": "cellular thermal shift assay (CETSA) in HEK-293 cells expressing KCC2", "type": "binding", "procedure": "Cell Culture and biotinylation. HEK-293 cells were purchased from ATCC (CRL-1573) and transfected with human KCC2 and GFP expression plasmids using Lipofectamine 2000. Cells were utilized for experimentation 48-72 h following transfection. Cells were biotinylated at 4° C. using NHS-Biotin. Following lysis and purification on immobilized avidin beads, cell surface and total fractions were subject to immunoblotting as outlined previously (Conway et al., 2017, supra).\nDetermining if compounds in SSA directly interact with KCC2. This was tested using a cellular thermal shift assay (CETSA), which measures the ability of a drug to modify the thermal stability of its target in whole cells (Kawatkar et al., ACS Chem. Biol. 14, 1913-1920 (2019); Martinez et al., Sci Rep 8, 9472 (2018)).\n2×10^6 transfected HEK-293 cells were incubated with 30 μM drug or vehicle for 90 min at 37° C. and then heated from 37-58° C. for 5 min. Cells were rapidly chilled to 25° C. and NP40 was added to a final concentration […] to snap freezing in liquid nitrogen. […]\nAliquots of HEK-293 cells expressing KCC2 were exposed to 30 μM SSA, heated from 37-55° C. The remaining level of soluble native KCC2 at each temperature was measured by immunoblotting and normalized to the level seen at 37° C. which was given a value of 1. […]"}, "KCC2 [2]": {"biological_target": "T1, KCC2", "assay": "FLIPR TI+ flux assay, HEK-293 cells expressing KCC2", "type": "cell-based", "procedure": "A multi-tiered high-throughput screening assay was used, leveraging a proprietary library of 1.3 million small molecule compounds from AstraZeneca (Cambridge, UK) to identify chemical entities capable of activating KCC2. A single point concentration of 30 μM was used to identify potassium flux using an established thallium (TI+) influx FLIPR assay as the primary read out in HEK-293 cells overexpressing KCC2 (Cardarelli et al., Nat. Med. 23, 1394-1396 (2017); Conway et al., J Biol Chem 292, 21253-21263 (2017); Lee et al., 2022, supra).\nCell Culture and biotinylation. […]\nFLIPR TI Flux assay. HEK-293 cells were washed with HBSS, and then incubated with loading buffer containing TI sensitive fluorescent dye (https://www.moleculardevices.com), 20 μM bumetanide 20 μM ouabain and 2.5 mM probenecid for 1 h at room temperature (RT) under control conditions or with drugs in the dark using a FlexStation 3 microplate reader (Molecular Devices) and imaged […] for 30 min. Stimulus buffer was added containing 5 mM K^+/0.5 mM Tl^+ and cells were imaged every 1.5 over a 190 second time course The initial rate Tl^+ uptake (Relative Fluorescence Units (RFU) per second) was determined following addition of the stimulus buffer as outlined previously (Conway et al., 2017, supra) (Lee et al., 2022, supra). […]"}, "[3]": {"system": "neuronal cell death in the hippocampus", "assay": "neuronal cell death in the hippocampus of mice treated with Compound A and diazepam", "type": "in vivo", "conditions": "Compound A and diazepam vs diazepam alone"}}, "data": [{"smiles": "C[C@@H]1CN(c2nc3c(c(Nc4ccc(C5CCCCC5)cc4)n2)COC3)CCO1", "note": "[Compound A, (R)—N-(4-cyclohexylphenyl)-2-(2-methylmorpholino)-5,7-dihydrofuro[3,4-d]pyrimidin-4-amine]", "values": [{"measurement": "direct binding to KCC2 as measured using CETSA", "setting": "KCC2 [1]", "value": "capable of directly binding to KCC2"}, {"measurement": "EC50", "setting": "KCC2 [2]; HEK-293 cells, 1% β-cyclodextrin (BCD) vehicle, read-out: EC50 for KCC2 as measured by TI+ flux", "value": "261 ± 22.2", "unit": "nM"}, {"measurement": "maximum potentiation of KCC2", "setting": "KCC2 [2]; saturating concentration of 3 μM, 1% BCD vehicle", "value": 90, "unit": "%"}, {"measurement": "neuronal cell death in the hippocampus", "setting": "[3]", "value": "significantly reduced"}]}]}
